Test results published in patent US12618096B2, “Rapid screen for antibiotic resistance and treatment regimen” (priority 2020, dated 2026).

What was measured:
Assay type in all cases: cell-based
A. baumannii NCTC 10303 = assay: Resistance profile of bacterial strain
A. baumannii NCTC 13302 = assay: Resistance profile of bacterial strain
A. baumannii ATCC 17978 = assay: Resistance profile of bacterial strain
[1] = test system: A. baumannii ATCC 17978 ColR; assay: Resistance profile of bacterial strain
P. aeruginosa PAO1 = assay: Resistance profile of bacterial strain
[2] = test system: Klebsiella pneumoniae (NCTC 13368); assay: Bacterial impedance flow cytometry of antimicrobial peptides; settings: at the concentrations tested
Description: The method for determining the efficacy of different membrane penetrating peptide antimicrobials is essentially the same as for Example 1. Briefly, colonies are picked from plate carrying bacteria from a clinical sample (e.g. a urine sample from suspected UTI) into Tryptone soy broth (TSB) and incubated for 30 minutes prior to addition of the membrane penetrating peptide antimicrobial preparation. The incubation is typically carried out at 37° C. with shaking. […] The concentrations are selected to span the minimum inhibitory concentration of the two strains, as might be used clinically for an antimicrobial breakpoint determination. Optionally, the bacterial impedance flow cytometry method may be used to generate a measurement of the minimum inhibitory concentration or a fixed concentration is used on the basis of a resistant/susceptible breakpoint. The sample is incubated at 37° C. for 30 or 60 minutes in a static incubator at 37° C. The population at each timepoint is analysed using bacterial impedance flow cytometry and the data collected and analysed to measure both the viable cell number and any migration of the cell population out of a contour enclosing a percentage of a control or untreated population of the same species.
The bacterial impedance of the population was measured. […]

Compound | Resistance profile (A. baumannii NCTC 10303) | Resistance profile (A. baumannii NCTC 13302) | Resistance profile (A. baumannii ATCC 17978) | Resistance profile [1] | Resistance profile (P. aeruginosa PAO1) | Susceptibility of NCTC 13368 relative to NCTC 12923 [2]
O=C(O)c1cn(C2CC2)c2cc(N3CCNCC3)c(F)cc2c1=O [Ciprofloxacin] | Resistant | Resistant | Resistant | Colistin-Resistant Ciprofloxacin-Resistant; | Resistant | –
CC[C@H](C)[C@H](NC(=O)CN)C(=O)NCC(=O)N[C@@H](C)C(=O)N[C@H](C(=O)N[C@@H](CC(C)C)C(=O)N[C@@H](CCCCN)C(=O)N[C@H](C(=O)N[C@@H](CC(C)C)C(=O)N[C@H](C(=O)N[C@H](C(=O)NCC(=O)N[C@@H](CC(C)C)C(=O)N1CCC[C@H]1C(=O)N[C@@H](C)C(=O)N[C@@H](CC(C)C)C(=O)N[C@H](C(=O)N[C@@H](CO)C(=O)N[C@@H](Cc1c[nH]c2ccccc12)C(=O)N[C@H](C(=O)N[C@@H](CCCCN)C(=O)N[C@@H](CCCNC(=N)N)C(=O)N[C@@H](CCCCN)C(=O)N[C@@H](CCCNC(=N)N)C(=O)N[C@@H](CCC(N)=O)C(=O)N[C@@H](CCC(N)=O)C(N)=O)[C@@H](C)CC)[C@@H](C)CC)[C@@H](C)O)[C@@H](C)O)C(C)C)C(C)C [melittin] | – | – | – | – | – | lower susceptibility
Colistin | Sensitive | Sensitive | Sensitive | Colistin-Resistant Ciprofloxacin-Resistant; | Sensitive | –
Gentamicin | resistant | Gentamicin- Resistant; Imipenem -Resistant; | Resistant | Resistant | Resistant | –
Piperacillin/tazobactam | Piperacillin/tazobactam -sensitive | Piperacillin/tazobactam -Resistant | Piperacillin/tazobactam -Sensitive | Piperacillin/tazobactam -Sensitive | Piperacillin/tazobactam -Sensitive | –
